System: P12-Ichikawa
Test: cell viability relative to DMSO control; higher = less cytotoxic
Details: 48 h
Procedure, shortened: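 Viability is a per-plate percentage relative to DMSO wells, with cell-free wells as background. CellTiter-Glo One luminescence was read after 48 h at 37°C on 1536-well plates (5 μl) of NOMO1 or SEM (500 cells/well) or P12-Ichikawa (1000 cells/well) leukemia cells. The cells had been adapted for at least four passages in each medium and pin-dosed with library compounds in DMSO from 47 μM to 0.79 nM in 11 threefold steps.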

[1] = HPLM + 10% dialyzed FBS, 0.000781 µM
[2] = HPLM + 10% dialyzed FBS, 0.00234 µM
[3] = HPLM + 10% dialyzed FBS, 0.00702 µM
[4] = HPLM + 10% dialyzed FBS, 0.0211 µM
[5] = HPLM + 10% dialyzed FBS, 0.0632 µM
[6] = HPLM + 10% dialyzed FBS, 0.19 µM
[7] = HPLM + 10% dialyzed FBS, 0.569 µM
[8] = HPLM + 10% dialyzed FBS, 1.71 µM
[9] = HPLM + 10% dialyzed FBS, 5.12 µM
[10] = HPLM + 10% dialyzed FBS, 15.4 µM
[11] = HPLM + 10% dialyzed FBS, 46.1 µM
[12] = RPMI 5 mM glucose + 10% FBS, 0.000781 µM
[13] = RPMI 5 mM glucose + 10% FBS, 0.00234 µM
[14] = RPMI 5 mM glucose + 10% FBS, 0.00702 µM
[15] = RPMI 5 mM glucose + 10% FBS, 0.0211 µM
[16] = RPMI 5 mM glucose + 10% FBS, 0.0632 µM
[17] = RPMI 5 mM glucose + 10% FBS, 0.19 µM
[18] = RPMI 5 mM glucose + 10% FBS, 0.569 µM
[19] = RPMI 5 mM glucose + 10% FBS, 1.71 µM
[20] = RPMI 5 mM glucose + 10% FBS, 5.12 µM
[21] = RPMI 5 mM glucose + 10% FBS, 15.4 µM
[22] = RPMI 5 mM glucose + 10% FBS, 46.1 µM
[23] = RPMI 5 mM glucose + 10% dialyzed FBS, 0.000781 µM
[24] = RPMI 5 mM glucose + 10% dialyzed FBS, 0.00234 µM
[25] = RPMI 5 mM glucose + 10% dialyzed FBS, 0.00702 µM
[26] = RPMI 5 mM glucose + 10% dialyzed FBS, 0.0211 µM
[27] = RPMI 5 mM glucose + 10% dialyzed FBS, 0.0632 µM
[28] = RPMI 5 mM glucose + 10% dialyzed FBS, 0.19 µM
[29] = RPMI 5 mM glucose + 10% dialyzed FBS, 0.569 µM
[30] = RPMI 5 mM glucose + 10% dialyzed FBS, 1.71 µM
[31] = RPMI 5 mM glucose + 10% dialyzed FBS, 5.12 µM
[32] = RPMI 5 mM glucose + 10% dialyzed FBS, 15.4 µM
[33] = RPMI 5 mM glucose + 10% dialyzed FBS, 46.1 µM

SMILES	cell viability [1] [%]	cell viability [2] [%]	cell viability [3] [%]	cell viability [4] [%]	cell viability [5] [%]	cell viability [6] [%]	cell viability [7] [%]	cell viability [8] [%]	cell viability [9] [%]	cell viability [10] [%]	cell viability [11] [%]	cell viability [12] [%]	cell viability [13] [%]	cell viability [14] [%]	cell viability [15] [%]	cell viability [16] [%]	cell viability [17] [%]	cell viability [18] [%]	cell viability [19] [%]	cell viability [20] [%]	cell viability [21] [%]	cell viability [22] [%]	cell viability [23] [%]	cell viability [24] [%]	cell viability [25] [%]	cell viability [26] [%]	cell viability [27] [%]	cell viability [28] [%]	cell viability [29] [%]	cell viability [30] [%]	cell viability [31] [%]	cell viability [32] [%]	cell viability [33] [%]
CN(C)CCc1c[nH]c2ccc(C[S+](=O)([O-])N3CCCC3)cc12	104	105	110	114	114	113	114	111	107	110	84.4	106	110	110	116	109	115	118	111	111	99.8	87.5	97.1	101	108	106	113	107	117	113	104	96	84.2
N=C(N)Nc1ccc(C(=O)Oc2ccc3cc(C(=N)N)ccc3c2)cc1	88.3	104	98.8	92.5	103	95.5	88.6	83.9	87.9	87.4	72.3	96.4	93	99.4	90.5	102	95.9	91.1	97	88.4	95.7	52	83.8	92.3	86.5	83.4	89.5	85	86.7	87.1	85.1	83.7	53
Cc1c(C(=O)c2cccc3ccccc23)c2cccc3c2n1[C@H](CN1CCOCC1)CO3	98.5	93.4	93.5	97	89.5	90.2	91.4	91.9	80.8	82	26.2	83.1	76.7	81.9	78.4	87.8	77.5	80.1	84.5	76.3	74.7	12.9	86	92.5	85.4	82.6	94.2	86.9	90.2	84.6	81	78.6	28.5
O=C1CCCC(=O)C1C(=O)c1ccc(C(F)(F)F)cc1[N+](=O)[O-]	106	106	108	118	112	113	106	105	110	98.3	100	123	116	114	123	113	109	119	110	111	109	105	113	113	107	110	115	110	108	110	108	104	99.5
C[N]1N=CC=C1C/2=C(\C)N(C(=O)C(=C2)/C(=O)NCC3=NC=C(C=C3)[S+](C)([O-])=O)C4=CC=CC(=C4)C(F)(F)F	107	104	106	104	107	107	105	101	98.3	96.8	88.5	105	102	109	109	112	93	106	97.3	92	91.1	99.2	108	105	112	105	106	95	110	103	102	91.7	97.5
NCCc1ccc(O)c(O)c1	–	–	–	–	–	–	–	–	–	–	–	–	–	–	–	–	–	–	–	–	–	–	128	124	123	126	131	123	129	121	121	124	110
OCCN(CCO)c1nc(N2CCCCC2)c2nc(N(CCO)CCO)nc(N3CCCCC3)c2n1	113	110	118	114	114	113	109	107	107	98	75	108	108	113	111	119	113	110	106	109	109	68.2	113	105	111	106	117	106	105	101	103	101	58.4
O=C(NCc1ccccc1)c1csc(Nc2ccncn2)n1	91	95.5	100	110	105	108	103	85.2	62.9	5.82	1.69	94	96.1	92.9	104	106	94.5	104	63.7	37.6	5.79	2.56	93.4	101	104	112	106	97.2	102	80.6	36	6.99	2.78
O=C1N\C=N/C2=C1C=N[NH]2	83.8	89.6	83.5	92.1	83.9	93.2	91.1	87.6	72.4	77.8	25.4	83.9	91.4	84	87.9	80.6	81.7	82.8	79.1	84.2	84.4	67.3	81.7	86.2	79.1	88.7	78.7	79.3	90.5	85.2	87.1	85.2	68
Oc1ccc([C@@H]2Oc3ccc(O)cc3[C@@H]3CCC[C@@H]32)cc1	86.9	90.2	94.7	93.5	92.7	95.1	94.3	90.5	87.4	40.6	12.2	88.5	82.6	92.7	88.7	90	87	85.5	85.4	82.3	34.1	12	76.8	80.7	87.2	85.6	82.8	76.6	82.4	76.5	72.8	44.6	14.4
CC(C)[N+]1(C)C2CCC1CC(OC(=O)C(CO)c1ccccc1)C2.O.[Br-] (stereo not drawn)	98.5	111	116	112	123	124	123	109	50	14.1	7.93	125	123	129	126	128	125	137	132	127	52.5	13.8	113	113	119	117	124	112	118	115	102	34	19.3
CC(C)Cn1cnc2c(N)nc3ccccc3c21	124	113	107	116	115	112	113	106	87.6	75.1	89.9	113	123	116	119	111	115	110	107	106	106	85.1	111	111	109	115	115	112	105	107	104	102	81
COc1cc2c(Nc3ccc(Cl)c(Cl)c3F)ncnc2cc1OC[C@@H]1C[C@@H]2CN(C)C[C@@H]2C1	95.2	102	108	112	100	110	104	104	108	81.8	5.15	95.3	102	98	105	109	112	114	110	119	106	5.73	108	114	108	113	117	117	115	111	113	89.6	4.74
CC(C)(O)C(=O)Nc1ccc([N+](=O)[O-])c(C(F)(F)F)c1	103	109	124	119	118	123	119	119	85.6	24	11.6	95.7	108	115	115	122	113	119	125	87	29.5	13.8	94.1	127	116	121	125	130	139	136	127	74.8	18.1
COc1ccc(C2(C#N)CCC(C(=O)O)CC2)cc1OC1CCCC1 (stereo not drawn)	96.2	105	108	108	104	107	103	99.2	105	108	109	94.8	97.6	96.6	95.2	96.8	101	106	103	97.9	103	96.2	91.5	95.6	92.8	93.4	101	102	100	108	94.3	100	87.9
